Test system: CFTR−/− mice
Experiment: Ileal villus height in CFTR−/− mice
Type: in vivo, mouse
Conditions: 40 mg/day
Experimental: CF and WT mice were fed as outlined in the method section above. Ileal height, i.e., the villi height in the ileum, was measured in CF knockout animals treated with either Peptamen™ alone, Peptamen™ +40 mg per day DHA, or Wild Type (WT) animals treated with Peptamen™ alone. Animals were sacrificed at 50 days of age, ileum fixed in paraformaldehyde, and the height measured on micrographs at 100×. […] The results are outlined in FIG. 2. […] Statistically significant differences (p<0.005) were found between wild-type and CF mice as well as between CF+40 mg DHA/day and CF. There was no statistically significant difference between WT and CF+40 mg DHA/day. […]
Morphometry: For measurement of ileal villus height or pancreatic luminal diameter, multiple images were randomly taken at 200× using a Nikon Microphot-SA microscope equipped with a Diagnostic Instruments, Inc., Spot Digitizing System. […] Quantitation was performed using NIH Imaging Software. The differences between the means in the groups tested were evaluated using the Student's t-test.
Thus, the morphologic and morphometric studies utilized with the pancreas were also performed on the ileum. Tissue from the wild type and CFTR−/− mice was prepared for light microscopy and sections analyzed at 200×. […] Morphometric analysis is shown in FIG. 8, the villous height was quantitated using NIH image software and expressed as mean […]±S.D. (n=6). […]

CC/C=C\C/C=C\C/C=C\CCCCCCCC(=O)O [LNA, α-linolenic acid, reference compound]
Effect on ileal/intestinal villus height (in words): increased intestinal villi height
